Reference: patent US20040171089A1, “High-throughput screening assay for identifying substances capable of modulating cell survival and/or proliferation” (priority 2001, published 2004)

Key:
adult dermal fibroblasts = test: MTS cell viability/proliferation assay, adult dermal fibroblasts; type: cell-based, human; settings: 1-10 μM
Method: This was carried out using an MTS assay (reagents from Promega Corporation, Madison Wis., USA) which is a modification of the MTT assay (as described in Jacobson et al, 1994 EMBO J Vol 13 pp1899-1910). The assay depends on conversion of the MTS tetrazolium compound to a coloured formazan product in metabolically active cells; it is therefore an assay of viable cell number. A decline in values implies cell killing as long as cell disappearance by apoptosis in untreated cell populations is absent or negligible (as with most healthy primary cell populations).
Cells were seeded in the range 1.5×10^5-1.8×10^5 cells per ml of culture medium in 96 well microtitre plates and allowed to attach in a humidifed atmosphere of 5% CO2 in air at 37 deg C. Drugs were added 18-24 hours later and cell viability/proliferation measured at time intervals up to 48-72 hours post-drug addition when the experiment was terminated. Mean (±SE) values at each time point were obtained from wells in triplicate.
Cell viability was measured as follows: 20 μl of MTS solution (Promega) was added to wells and incubated at 37 deg C. for 3 hours during which time a coloured formazan product is generated in viable cells. […] Viable cell number was then measured by reading absorbance at 490 nm in a Dynex microtitre plate reader. […]

phospholipase C = test: Quantitative HPLC assay of inositol phosphates (IP3 levels) in MDA MB 468 cells; type: cell-based, human; settings: [3H] inositol labelled cells
Source text: The PH domain of PLC delta 1 has a higher affinity for the phosphoinositide IP3 compared to PIP2. IP3 is produced from PIP2 in response to activation of PLC. Since PIP2 is membrane-bound whereas IP3 is cytosolic, the activation of PLC can be visualised in living cells by the relocalisation of GFP-PH PLC delta 1 from membrane to cytosol. A proviso to this interpretation is that, in conditions where PIP2 levels decline relative to IP3, the net effect would be relocalisation of GFP-PH PLC delta 1 from membrane to cytosol. Thus, to exclude this possibility, quantitative phospholipid assays were performed. (In this analysis, cells were labelled with [^3H] inositol in inositol-free DMEM (In Vitrogen—Gibco) with dialysed FBS for 48 hours before exposure to sigma ligands. Cells were then lysed and subjected to quantitative HPLC assay). These assays confirmed that IP3 levels had risen in cells exposed to sigma antagonists (IP3 levels had risen to 240% and 166% of the level prior to provision of the test substance in response to IPAG and rimcazole respectively) but had not risen in cells exposed to sigma-1 or sigma-2 agonists. This confirmed activation of PLC by sigma antagonists.

MCF-7 cells = test: Fura-2 calcium imaging, MCF-7 cells; type: cell-based, human; settings: 10 μM
Method: (§1) For calcium imaging experiments cells were plated onto poly-L-lysine coated coverslips (13 mm). Single cell imaging was performed utilizing a MiraCal Imaging facility (Life Science Resources, Cambridge, U.K.) with a Nikon Diaphot-TMD inverted epifluorescence microscope equipped with a ×40 oil immersion objective and Sutter filter wheel. The imager was equipped with a Lambert intensifier 1187 (Life Sciences Resources) providing a ×30 enhancement of the fluorescent signal, thus limiting phototoxicity.
(§2) Fura-2 acetoxymethyl ester (fura-2 AM) incubations with the cells were performed at 37° C. in a medium containing (in mM): 120 NaCl, 3.5 KCl, 0.4 KH2PO4, 5 NaHCO3, 1.2 Na2SO4, 15 glucose, 1.2 MgCl2, 1 CaCl2, and 20 TES [N-tris(hydroxymethyl) methyl-2-aminoethane sulphonic acid] pH adjusted to 7.4 with NaOH. Typically cells were incubated in 3 μM fura-2 AM for 25 min., which permitted sufficient accumulation of free fura-2 in the cell cytoplasm. Cells were then illuminated alternately at 340 and 380 nm with the emitted 505 nm light being detected by a photomultiplier. […] Changes of intracellular calcium were quantified as the percentage increase of the fluorescent ratio (determined at ˜505 nm) obtained by exciting the test cells alternatively at 340 nm (optimal for calcium bound dye) and 380 nm.

PKB/Akt = test: PKB immunoprecipitation activity assay in MDA MB 468 cells; type: cell-based, human
Method: All cells received 1% DMSOvehiclefor the duration of stimulation. […] Data pointsshown are the mean PKB activity relative to vehicle treated cells from three independently treated dishes of cells with error barsindicating the standard deviation. As controls, cells were treatedwith the PI 3-kinase inhibitor wortmannin for 30 minutes orstimulated with serum for 5 minutes; and
MDA MB 468 cells were exposed to the sigma antagonist IPAG at 100 μM and 10 μM concentrations for periods of time up to 4 hours. At intervals, cells were lysed and then subjected to PKB immunoprecipitation, precisely as has been described previously (Leslie et al., 2001, Biochemical Journal, Vol 357 p427). This method, which is recognised in the art, provides a quantitative measure of PKB activity. FIG. 5c depicts a concentration- and time-dependent decline in PKB activity when cells were exposed to IPAG.

MDA MB 468 cells = test: Fura-2 calcium imaging, MDA MB 468 cells; type: cell-based, human; settings: for % increase of cytosolic calcium / % increase of cytosolic calcium (peak 340/380 nm fura-2 ratio): MDA 468 cells
Method: Human mammary carcinoma (MDA MB 468) cells were obtained from ATCC, Manassas, Va., USA; catalogue number HTB-132; cells were grown in accordance with the manufacturer's instructions.
as §1
Fura-2 acetoxymethyl ester (fura-2 AM) incubations with the cells were performed at 37° C. in a medium containing (in mM): 120 NaCl, 3.5 KCl, 0.4 KH2PO4, 5 NaHCO3, 1.2 Na2SO4, 15 glucose, 1.2 MgCl2, 1 CaCl2, and 20 TES [N-tris(hydroxymethyl) methyl-2-aminoethane sulphonic acid] pH adjusted to 7.4 with NaOH. Typically cells were incubated in 3 μM fura-2 AM for 25 min., which permitted sufficient accumulation of free fura-2 in the cell cytoplasm. Cells were then illuminated alternately at 340 and 380 nm with the emitted 505 nm light being detected by a photomultiplier. Free fura emits maximally when excited at 380 nm, whilst the calcium bound fura has a maximal emission when excited at 340 nm. Thus the ratio of emission when alternately excited at 340/380 nm is a measure of the calcium concentration in equilibrium with the chelator. Changes of intracellular calcium were quantified as the percentage increase of the fluorescent ratio (determined at ˜505 nm) obtained by exciting the test cells alternatively at 340 nm (optimal for calcium bound dye) and 380 nm.

[1] = system: cerebellar granule neurones; test: Fura-2 calcium imaging, cerebellar granule neurones; type: cell-based, rat; settings: 3 μM; cerebellar granule cells
Method: Cerebellar granule cells were prepared from 6-7 day post natal rats as previously described (see Courtney, M. J., Lambert, J. J. and Nicholls, D. G. [1990] J. Neuroscience 10: 3873-3879).
as §1
as §2, with “Typically cells were incubated in 3 μM fura-2 AM for 25 min., which permitted sufficient accumulation of free fura-2 in the cell cytoplasm.” left out

N=C(Nc1ccc(I)cc1)NC1C2CC3CC(C2)CC1C3 (centres unmarked) [IPAG, 1-(4-iodophenyl)-3-(2-adamantyl)guanidine]
Cytotoxicity (adult dermal fibroblasts): not cytotoxic | IP3 levels, % of the level prior to provision of the test substance (phospholipase C): 240% | time by which calcium levels have returned to baseline (MCF-7 cells): ≤ 30 min | time to peak effect on cytosolic calcium (MCF-7 cells): ≤ 5 min | PKB activity (PKB/Akt; 10 μM, up to 4 hours): later decline in PKB activity | PKB activity (PKB/Akt; 100 μM, within 5 minutes, sustained to at least 30 minutes): profoundly inhibited PKB activity | % increase of cytosolic calcium (MDA MB 468 cells; 1 μM, 100 μM extracellular calcium): 40±14% | % increase of cytosolic calcium (MDA MB 468 cells; 1 μM, 1 mM extracellular calcium (FIG. 3a experiment)): 157±10% | % increase of cytosolic calcium (peak 340/380 nm fura-2 ratio) (MDA MB 468 cells; 1 μM): 54±7% | % increase of cytosolic calcium (MDA MB 468 cells; 1 μM, absence of extracellular calcium): 1±0.4% | % increase of cytosolic calcium (peak 340/380 nm fura-2 ratio) (MDA MB 468 cells; 3 μM): 112±8% | % increase of cytosolic calcium (MDA MB 468 cells; 10 μM, 100 μM extracellular calcium): 237±12% | time of decline of intracellular calcium to baseline (MDA MB 468 cells; 10 μM, 0.1 mM extracellular calcium, MDA MB 468 cells): ≤ 10 min | % increase of cytosolic calcium (MDA MB 468 cells; 10 μM, 1 mM extracellular calcium (FIG. 3a experiment)): 230±12% | time calcium elevation remains close to peak levels (MDA MB 468 cells; 10 μM, 1 mM extracellular calcium, MDA MB 468 cells): at least 30 minutes | % increase of cytosolic calcium (peak 340/380 nm fura-2 ratio) (MDA MB 468 cells; 10 μM): 125±7% | time to peak effect on cytosolic calcium (MDA MB 468 cells; 10 μM, MDA MB 468 cells): ≤ 5 min | % increase of cytosolic calcium (MDA MB 468 cells; 10 μM, absence of extracellular calcium): 4±2% | effect on cytosolic calcium levels (in words) (MDA MB 468 cells; MDA MB 468 cells, FIG. 2a: IPAG 1-10 μM, rimcazole 10-30 μM, (+)-SKF 10,047 10 μM, (+)-pentazocine 10-30 μM, ibogaine 10-50 μM): increase cytosolic calcium levels | % increase of cytosolic calcium (peak 340/380 nm fura-2 ratio) [1]: 20±2%
